This note sets out measurements from patent US12594258B2, “Inhibitors of MHC-I Nef downmodulation for treating HIV” (priority 2019, dated 2026).

Entries after “also recorded” stand apart in the source; their conditions may differ. Where two headings read alike, the source gives them in different places.

In data set [1] the test system is HIV Nef.
In data set [2] the test system is primary CD4+ T cells. The data set can be described thus: MTT and flow cytometric viability assays in primary CD4+ T cells. It counts as cell-based, human. Particulars: Nef activity 24 hours, viability 72 hours. The protocol: CD4^+ T cells were plated at a density of 1×10^5 cells in 200 μL R10-50 in flat-bottom 96-well plates 4 days post-stimulation with PHA. Cells were exposed to titrations of plecomacrolides or solvent controls for 72 hours in culture, at which point viability was assessed relative to solvent by MTT assay in experimental duplicates. Equal volumes of cell culture medium containing CD4^+ T cells were pelleted in 96-well round-bottom plates and incubated in 4.5 mg/mL MTT (Fisher, M6494) in R10 with no Phenol Red at 37° C. until the purple formazan signal was clearly visible. The absorbance of cell pellets resuspended in DMSO was measured at 595 nm on a Molecular Devices Emax precision microplate reader and compared a standard curve of known viable cell numbers to ensure the experimental samples fell within the linear range of the assay.
A general note: A flow cytometer gives signals particle by particle.

Data set [3] concerns lysosomal pH in human monocyte-derive macrophages (MDMs). The data set can be described thus: Lysosensor Yellow/Blue dextran analysis of lysosomal pH in MDMs. It counts as cell-based. The protocol:
To measure the lysosomal pH in human monocyte-derive macrophages (MDMs), MDMs adhered to 24-well plates were exposed to 500 μg/mL Lysosensor Yellow/Blue dextran, 10,000 MW (ThermoFisher, L22460) in R10 for 24 hours. MDMs were then exposed to plecomacrolides for 1 hour and harvested with 0.05% Trypsin-EDTA (Gibco 25300054). Cells were washed twice in FACS buffer, and analyzed on a MoFlo Astrios flow cytometer, with blue signal excited from a 354 nm laser and yellow signal excited from a 405 nm laser. A standard curve was generated by resuspending MDMs in equilibration buffers of known pH as previously described. The ratio of blue:yellow fluorescence intensity was calculated for each cell, the median blue:yellow ratio for the cell population for each condition was obtained, and the lysosomal pH in MDMs was calculated for each condition using the standard curve.
Lysosensor Yellow/Blue Dextran Analysis of Lysosomal pH. To measure the lysosomal pH in human MDMs, MDMs adhered to 24-well plates were exposed to 500 μg/mL Lysosensor Yellow/Blue dextran, 10,000 molecular weight (MVV) in R10 for 24 h. MDMs were then exposed to plecomacrolides for 1 h and harvested with 0.05% Trypsin-(ethylenedinitrilo)tetraacetic acid (EDTA). Cells were washed twice in FACS buffer, and analyzed on a flow cytometer, with blue signal excited from a 354-nm laser and yellow signal excited from a 405-nm laser. A standard curve was generated by resuspending MDMs in equilibration buffers of known pH. The ratio of blue:yellow fluorescence intensity was calculated for each cell, the median blue:yellow ratio for the cell population for each condition was obtained, and the lysosomal pH in MDMs was calculated for each condition using the standard curve.

For data set [4], the system named is HIV Nef. This is another data set of the same source.

Regarding `CC[C@H](C)C(=O)O[C@H]1C[C@@H](C)C=C2C=C[C@H](C)[C@H](CC[C@@H]3C[C@@H](O)CC(=O)O3)[C@H]21` [lovastatin, Lovastatin], in data set [1], the “level of MHC-I restoration compared to CMA” value was “a fraction of the levels achieved by CMA; also recorded: did not achieve comparable levels”. In addition, the “restoration of MHC-I” value in data set [1] (24 hours post-treatment) was “little restoration of MHC-I”. In addition, in data set [1] (48 hours of exposure), the “restoration of MHC-I to the surface of Nef-expressing cells” value was “partially restore MHC-I”. Besides, the “concentration required for restoration of MHC-I compared to CMA” value in data set [1] (higher than CMA) is 2,000 fold.

As a reminder, the EC50 is the concentration needed to bring the measured effect to its halfway point. In the case of `CO/C1=C\C(C)=C\[C@@H](C)[C@@H](O)[C@@H](C)C/C(C)=C/C=C/[C@H](OC)[C@@H]([C@@H](C)[C@@H](O)[C@H](C)[C@@]2(O)C[C@@H](O)[C@H](C)[C@@H](C(C)C)O2)OC1=O` [Baf A1], the “difference between the 50% effective and toxic concentrations (EC50 and TC50)” value in data set [2] is […]. For the same compound, in data set [3], the “neutralization of lysosomal pH” value is “completely neutralize lysosomal pH”. For the same compound, the EC50 stood at […] in data set [3] (1 hour, read-out: EC50 for lysosome neutralization) and […] in data set [1] (read-out: EC50 for Nef inhibition, HIV-infected primary CD4+ T cells, HLA-A2). The figures for the “reduction of Nef-dependent HLA-A2 downmodulation” value in data set [1] (primary T cells transduced with ΔGPE) and in data set [4] were […] and “over ten-fold”, respectively.
